Laboratory results taken from patent US20110269802A1, “METHOD OF DELIVERY OF PERISHABLE LIQUID MIXTURES USING MIXING CAP AND CONTAINER SYSTEM” (priority 2010, published 2011).

Tested on: diabetic, insulin dependent canine test subject
Experiment: GABA in drinking water given to diabetic, insulin dependent canine subjects; monitoring of fasting blood glucose and fructosamine
Assay type: in vivo
Settings: for decline of fasting blood glucose: 30 mg/kg daily in 200 milliliters of water, oral, after two months of treatment, subject as its own control
Experimental: METHODS: GABA (99% pure from Sigma-Aldrich) at a dose of 30 mg/kg was brought into solution in 200 milliliters of water daily so that the diabetic, insulin dependent canine test subject consumed the dose within approximately four hours, based on average consumption of water observed by owners. Fasting blood glucose and fructosamine were monitored once a month. Each canine subject served as its own control, with monitoring of blood glucose and fructosamine off treatment recorded the first two months followed by monitoring while on GABA therapy.

NCCCC(=O)O [GABA, gamma-aminobutyric acid]
concentrations of blood fructosamine (both subjects, 30 mg/kg daily in water, on treatment versus off treatment): significantly lower
decline of fasting blood glucose (first test subject): 49.6%
glycemic control (insulin dependent test subjects, 30 mg/kg daily in water, within two weeks, continued improvement over four months): improved glycemic control within two weeks
decline of fasting blood glucose (second test subject): 50%
